Source: patent US8268867B2, “1,3-dioxane carboxylic acids” (Cadila Healthcare Limited, priority 2006, dated 2012)
Structures can show the parent of a compound that is named as a salt.

Key:
[1] = test system: Swiss albino mice; assay: Serum triglyceride lowering activity in Swiss albino mice; format: in vivo; conditions: Mus musculus, po, 144 h; male Swiss albino mice, 10 mg/kg/day orally for 6 days, serum 1 hour after dosing on 6th day
Description: Male Swiss albino mice (SAM) were bred in Zydus animal house. All these animals were maintained under 12 hour light and dark cycle at 25±1° C. Animals were given standard laboratory chow (NIN, Hyderabad, India) and water ad libitum. SAM of 20-30 g body weight range was used. The protocol approved by Institutional Animal Ethics Committee is being used.
The test compounds were administered orally to Swiss albino mice at 0.001 to 50 mg/kg/day dose for 6 days. The compound was administered after suspending it in 0.25% CMC or dissolving it in water, when compound is water-soluble. Control mice were treated with vehicle (0.25% of Carboxymethyl cellulose; dose 10 ml/kg).
The blood samples were collected on 0th day and in fed state 1 hour after drug administration on 6th day of the treatment. The blood was collected in non heparinised capillary and the serum was analyzed for triglyceride (Wieland, O. Methods of Enzymatic analysis. Bergermeyer, H., O., Ed., 1963. 211-214; Trinder, P. Ann. Clin. Biochem. 1969. 6: 24-27). Measurement of serum triglyceride was done using commercial kits (Zydus-Cadila, Pathline, Ahmedabad, India).
Percentage Reduction in Triglycerides was Calculated According to the Formula: […]

[2] = test system: C57BL/KsJ-db/db mice; assay: Serum glucose and triglycerides lowering activity in db/db mice; format: in vivo; conditions: male db/db mice, 3 mg/kg/day oral gavage for 6 days, 1 hour after dosing on 6th day
Description: Homozygous animal C57BL/KsJ-db/db mice are obese, hyperglycemic, hyperinsulinemic and insulin resistant (J. Clin. Invest, 85, 962-967, 1990), whereas heterozygous are lean and normoglycemic. The homozygous animals very closely mimic the human type H diabetes when blood sugar levels are not sufficiently controlled. Since this type of model resembles human type II diabetes mellitus, the compounds of the invention were tested for their antidiabetic activity in this model.
Male C57BL/KsJ-db/db mice of 8 to 14 weeks age, having body weight range of 40 to 60 grams, procured from the Jackson Laboratory, USA, were used in the experiment.
Test compounds were suspended on 0.25% carboxymethyl cellulose or dissolved in water when the compound is water soluble and administered to test group containing 6 animals at a dose of 0.001 mg to 50 mg/kg through oral gavage daily for 6 days. The control group received vehicle (dose 10 ml/kg). On the 6th day, one hour after the drug dosing, blood was collected from retro-orbital sinus and the serum was analyzed for glucose and triglycerides were measured using commercial kits (Zydus-Cadila, Pathline, Ahmedabad, India). The serum glucose and triglyceride lowering activities of the test compound was calculated according of the formula: […]

Structure (SMILES) | melting point [°C] | inhibition in vivo at 10 mg/kg/day [1] [%] | Plasma TG reduction (%) [2] [%] | Serum Glucose reduction (%) [2] [%]
CC(=NOCCCCC1COC(C)(C(=O)O)OC1)c1ccc2ccccc2c1 (centres unmarked) (as salt: sodium) [Example 84, Sodium Salt of 2-Methyl-5-[4-(1-naphthalen-2-yl-ethylideneaminooxy)-butyl]-[1,3]dioxane-2-carboxylic Acid] | 240 | – | – | –
CC(=NOCCCCC1COC(C)(C(=O)O)OC1)c1ccc(C(F)(F)F)cc1 (centres unmarked) [Example 44, 2-Methyl-5-{4-[1-(4-trifluoromethyl-phenyl)-ethylideneaminooxy]-butyl}-[1,3]dioxane-2-carboxylic Acid] | – | 40 | – | –
CC(=NOCCCCC1COC(C)(C(=O)O)OC1)c1ccc(Cl)cc1 (centres unmarked) [Example 46, 5-{4-[1-(4-Chloro-phenyl)-ethylideneaminooxy]-butyl}-2-methyl-[1,3]dioxane-2-carboxylic Acid] | – | 39 | – | –
CC(=NOCCCCC1COC(C)(C(=O)O)OC1)c1ccc(C)cc1 (centres unmarked) [Example 48, 2-Methyl-5-[4-(1-p-tolyl-ethylideneaminooxy)-butyl]-[1,3]dioxane-2-carboxylic Acid] | – | 64 | 44 | 14
CC(=NOCCCCC1COC(C)(C(=O)O)OC1)c1ccc(F)c(Cl)c1 (centres unmarked) [Example 49, 5-{4-[1-(3-Chloro-4-fluoro-phenyl)-ethylideneaminooxy]-butyl}-2-methyl-[1,3]dioxane-2-carboxylic Acid] | – | 51 | – | –
CCc1ccc(C(C)=NOCCCCC2COC(C)(C(=O)O)OC2)cc1 (centres unmarked) [Example 52, 5-{4-[1-(4-Ethyl-phenyl)-ethylideneaminooxy]-butyl}-2-methyl-[1,3]dioxane-2-carboxylic Acid] | – | 36 | – | –
CCOc1ccc(C(C)=NOCCCCC2COC(C)(C(=O)O)OC2)cc1 (centres unmarked) [Example 55, 5-{4-[1-(4-Ethoxy-phenyl)-ethylideneaminooxy]-butyl}-2-methyl-[1,3]dioxane-2-carboxylic Acid] | – | 46 | – | –
COc1ccc(C(C)=NOCCCCC2COC(C)(C(=O)O)OC2)cc1C (centres unmarked) [Example 57, 5-{4-[1-(4-Methoxy-3-methyl-phenyl)-ethylideneaminooxy]-butyl}-2-methyl-[1,3]dioxane-2-carboxylic Acid] | – | 43 | – | –
COc1ccc(C(C)=NOCCCCC2COC(C)(C(=O)O)OC2)cc1OC (centres unmarked) [Example 59, 5-{4-[1-(3,4-Dimethoxy-phenyl)-ethylideneaminooxy]-butyl}-2-methyl-[1,3]dioxane-2-carboxylic Acid] | – | 22 | – | –
CC(=NOCCCCC1COC(C)(C(=O)O)OC1)c1ccc(CC(C)C)cc1 (centres unmarked) [Example 60, 5-{4-[1-(4-Isobutyl-phenyl)-ethylideneaminooxy]-butyl}-2-methyl-[1,3]dioxane-2-carboxylic Acid] | – | 62 | – | –
COc1ccc(C(C)=NOCCCCC2COC(C)(C(=O)O)OC2)cc1F (centres unmarked) [Example 61, 5-{4-[1-(3-Fluoro-4-methoxy-phenyl)-ethylideneaminooxy]-butyl}-2-methyl-[1,3]dioxane-2-carboxylic Acid] | – | 44 | – | –
CC(=NOCCCCCC1COC(C)(C(=O)O)OC1)c1ccc2ccccc2c1 (centres unmarked) [Example 62, 2-Methyl-5-[5-(1-naphthalen-2-yl-ethylideneaminooxy)-pentyl]-[1,3]dioxane-2-carboxylic Acid] | – | 69 | – | –
CC(=NOCCCCC1COC(C)(C(=O)O)OC1)c1ccc2ccccc2c1 (centres unmarked) [Example 63, 2-Methyl-5-[4-(1-naphthalen-2-yl-ethylideneaminooxy)-butyl]-[1,3]dioxane-2-carboxylic Acid] | – | 84 | 59 | 41
CC(=NOCCCCC1COC(C)(C(=O)O)OC1)c1ccc2c(c1)CCCC2 (centres unmarked) [Example 64, 2-Methyl-5-{4-[1-(5,6,7,8-tetrahydro-naphthalen-2-yl)-ethylideneaminooxy]-butyl}-[1,3]dioxane-2-carboxylic Acid] | – | 85 | 46 | 31
COc1ccc(C(C)=NOCCCCC2COC(C)(C(=O)O)OC2)cc1 (centres unmarked) [Example 66, 5-{4-[1-(4-Methoxy-phenyl)-ethylideneaminooxy]-butyl}-2-methyl-[1,3]dioxane-2-carboxylic Acid] | – | 50 | 45 | 27
CC(=NOCCCCC1COC(C)(C(=O)O)OC1)c1ccc(OS(C)(=O)=O)cc1 (centres unmarked) [Example 67, 5-{4-[1-(4-Methanesulfonyloxy-phenyl)-ethylideneaminooxy]-butyl}-2-methyl-[1,3]dioxane-2-carboxylic Acid] | – | 75 | 48 | 12
CC(=NOCCCCC1COC(C)(C(=O)O)OC1)c1cccs1 (centres unmarked) [Example 68, 2-Methyl-5-[4-(1-thiophen-2-yl-ethylideneaminooxy)-butyl]-[1,3]dioxane-2-carboxylic Acid] | – | 33 | – | –
CC(=NOCCCCC1COC(C)(C(=O)O)OC1)c1ccc2c(c1)OCO2 (centres unmarked) [Example 69, 5-[4-(1-Benzo[1,3]dioxol-5-yl-ethylideneaminooxy)-butyl]-2-methyl-[1,3]dioxane-2-carboxylic acid] | – | 61 | – | –
CC(=NOCCCCC1COC(C)(C(=O)O)OC1)c1ccc(-c2ccccc2)cc1 (centres unmarked) [Example 70, 5-[4-(1-Biphenyl-4-yl-ethylideneaminooxy)-butyl]-2-methyl-[1,3]dioxane-2-carboxylic Acid] | – | 49 | 52 | 26
CC(=NOCCCCC1COC(C)(C(=O)O)OC1)c1cccc(C)c1 (centres unmarked) [Example 76, 2-Methyl-5-[4-(1-m-tolyl-ethylideneaminooxy)-butyl]-[1,3]dioxane-2-carboxylic Acid] | – | 67 | – | –
CCC(=NOCCCCC1COC(C)(C(=O)O)OC1)c1ccc(OC)cc1 (centres unmarked) [Example 77, 5-{4-[1-(4-Methoxy-phenyl)-propylideneaminooxy]-butyl}-2-methyl-[1,3]dioxane-2-carboxylic Acid] | – | 39 | – | –
CCC(=NOCCCCC1COC(C)(C(=O)O)OC1)c1ccc(C)cc1 (centres unmarked) [Example 78, 2-Methyl-5-[4-(1-p-tolyl-propylideneaminooxy)-butyl]-[1,3]dioxane-2-carboxylic Acid] | – | 42 | – | –
CCCCCCCCOC(=O)C1(C)OCC(CCCCON=C(C)c2ccc3ccccc3c2)CO1 (centres unmarked) [Example 83, Octyl-2-methyl-5-[4-(1-naphthalen-2-yl-ethylideneaminooxy)-butyl]-[1,3]dioxane-2-carboxylate] | – | 61 | – | –
